Measured values as given in patent US6428817B1, “Companion animal therapeutic treat” (priority 2001, dated 2002).

Assays:
cartilage degradation = conditions: mammals; cited from earlier work
[1] = system: bovine nasal cartilage explants; test: Proteoglycan degradation in bovine nasal cartilage explants, basal and TNF alpha stimulated; assay for sulfated glycosaminoglycans; assay type: cell-based; conditions: EGCg 22 μM, 5 days culture, with or without recombinant human tumor necrosis factor alpha 3 nM
Description: See, Haqqi, et al., Proc. Natl. Acad. Sci., USA, 96:4524-29 (1999). […] Id. In an experiment, purified EGCg, from Sigma Chemical Supply, St. Louis, Mo., was placed with bovine nasal cartilage explants at a concentration of22 μM. This mixture was cultured for 5 days in the presence or absence of the pro-inflammatory cytokine, recombinant human tumor necrosis factor alpha at 3 nM. The inhibition of both the basal and stimulated protcoglycan degradation by EGCg was measured using a calorimetric assay for sulfated glycosaminoglycans. See, Farndale, et al., Biochem. Biophys. Acta, 4:883 (1986).

## epigallocatechin-3-gallate [EGCg]
Cartilage degradation
  inhibition of cartilage degradation: inhibitor of cartilage degradation
[1]
  inhibition of basal and stimulated proteoglycan degradation (cartilage breakdown): potent inhibitor of cartilage breakdown
